Marks after values point to notes of the source that are not given here.
What was measured:
MUC5AC [1] = test: Immunohistochemistry of MUC5AC glycoforms (45M1, CLH2) in resected PDA tissue, H-score and extracellular detection; type: in vivo, human; details: neoadjuvant therapy group by chemotherapy
Experimental: Immunohistochemistry. […] The assay methodology development, optimization, and validation mirrors any new clinical immunohistochemical assay development in the laboratory. […] Briefly, the assay is performed on automated Stainer's (Leica Bond or Dako) in the laboratory. Appropriate positive (e.g., normal stomach) and negative tissue (e.g. normal pancreas) controls are used to optimize and validate the assay. The best pretreatment and antibody detection systems are determined using the manufacturer's antibody datasheet, and titration of at least three antibody dilutions are performed. If there is no recommendation from the manufacturer, the antibody is tested by trying the different lab pretreatment and detection system methods in order to determine the best method. Antibody dilutions may need to be optimized, depending on the results of initial testing. A pathologist reviews the slides from the validation run to determine the optimal methodology. Assessment of MUC5AC immunohistochemical staining. The immunohistochemical-labelled whole tumor section slides is reviewed by a pathologist with expertise in pancreaticobiliary pathology. The slides are reviewed for the expression patterns (Cytoplasmic vs Membranous) and scored for the extent (% of tumor stain) and intensity of staining (Negative 0, mild 1+, moderate 2+ and strong +3). A semiquantitative approach of H-score is assigned to tumor samples for statistical analysis. […] Tumor with scores <10 are considered as negative for expression. […] One hundred resected PDA specimens and serum samples were collected. 43 patients had neoadjuvant therapy (NAT), and 57 had upfront surgery (UpS). […] The presence or absence of extracellular (EC) expression was also studied. […] NR vs. […] Five of them were heavily treated with systemic therapy. […] Serum samples for the patients were collected at different time points of the management. This allowed for studying the relationship between serum MUC5AC with the known pancreatic cancer tumor marker CA 19-9 and MUC5AC's role in predicting treatment response. […] PR vs. […] The CA 19-9 levels followed the same trend (nCR vs. PR vs. NR=129 vs. 452 vs. 958, p>0.05). […] This can explain larger tumors in these groups. […] It should be noted that CA 19-9 levels were very high but not statistically significant in lower MUC5AC groups. One key takeaway from this is that PFS is not only driven by the pathological response in NAT group. Clinically, this may translate into guiding the physicians about the timing of surgery while on systemic therapy. […] OR vs. NR, 2.64 vs. 0.9, p=0.05). • There were 17 patients within 8 weeks of surgery, 9 within 5 weeks, and 8 from 5-8 weeks. The mean MUC5AC was lower than the ones noted in the pretreatment/presurgery population (1.2 ng/mL). […] The pathological response noted on the resected sample in NAT-group reported from the scale of 1-3 based on the treatment response. For practical purposes, patients with extensive tumors with no evident tumor regression or 3 were designated as the no-response (NR) group. Patients with residual tumors with evidence of regression or 2 and near complete response or single cells or small group of cancer cells or 1 were considered as partial-response (PR) or near complete-response (nCR), respectively.

[2] = tested on: pancreatic cell lines (PCLs); test: Chemosensitivity of pancreatic cell lines by MUC5AC expression level; type: cell-based
Excerpt: It was also shown that MUC5AC detected by CLH2 (immature) and 45M1 (mature) mabs are differently localized (Ho, J. J., et al., Secretion of MUC5AC mucin from pancreatic cancer cells in response to forskolin and VIP. Biochem Biophys Res Commun, 2002. 294(3): p. 680-6). NPC-1C-specific (immunogenic) MUC5AC has a distribution similar to mature MUC5AC. It can therefore be concluded that there are differences in chemosensitivities MUC5AC^negative MUC5AC^low to moderate and MUC5AC^high pancreatic cell lines (PCLs).
Thus, adding localization and other isoform data to the level of mature MUC5AC expression gives a better predictive signal in PDA patients.

MUC5AC [3] = test: Serum MUC5AC by ELISA kit in PDA patients; type: in vivo, human; details: recurrent group, adjuvant therapy
Excerpt: One hundred resected PDA specimens and serum samples were collected. 43 patients had neoadjuvant therapy (NAT), and 57 had upfront surgery (UpS). The cellular expression of MUC5AC was studied in the resected formalin-fixed paraffin-embedded tissue through immunohistochemistry using 45M1 and CLH2 antibodies. The expression levels in the tissue were estimated using H-score intensity (0-3)X % of tumor cells with expression with results ranging from 0-300. The presence or absence of extracellular (EC) expression was also studied. Below is a summary of some significant findings. • CLH2-MUC5AC was identified in the perinuclear region or cytoplasm, while 45M1-MUC5AC was identified in apical and EC regions. […] Human serum MUC5AC levels were analyzed using the Human MUC5AC ELISA Kit (Catalog number NBP2-76703, Novus Biologicals, Centennial, CO). 45M1 and CLH2 could not be detected in the serum samples, but the commercially available kits allowed detection and measuring of MUC5AC. […]
There was an analysis of patients with serum MUC5AC levels available post-NAT […] to understand if serum MuC5AC levels help predict treatment response. […] The correlation between tissue (45M1 and CLH2) and serum MUC5AC levels was analyzed as the former correlated with treatment response in NAT-group.

[4] = compared with MUC5AC low to moderate PCLs
[5] = compared with MUC5AC negative PCLs

SMILES	45M1 H-score mean (MUC5AC [1])	45M1 H-score median (range) (MUC5AC [1])	45M1 detection rate (MUC5AC [1])	CLH2 H-score mean (MUC5AC [1])	CLH2 H-score median (range) (MUC5AC [1])	CLH2 detection rate (MUC5AC [1])	EC-45M1 detection rate (MUC5AC [1])	chemosensitivity of MUC5AC high PCLs [2, 4]	chemosensitivity of MUC5AC high PCLs [2, 5]	Serum MUC5AC (MUC5AC [3]; after chemotherapy)	Serum MUC5AC (MUC5AC [3]; before chemotherapy)
O=c1[nH]cc(F)c(=O)[nH]1 [5FU, fluorouracil]	130	105 (0-270)	89%	126	95 (0-270)	89%	58%	more sensitive	more sensitive	–	–
N.N.[Cl][Pt][Cl] [Cisplatin, cisplatin]	–	–	–	–	–	–	–	more sensitive	more sensitive	–	–
Nc1ccn([C@@H]2O[C@H](CO)[C@@H](O)C2(F)F)c(=O)n1 [Gem, gemcitabine]	116	150 (10-210)	100%	150)/90	120	100%	60%	resistant	resistant	5.3* ng/mL	1.1 ng/mL
CCc1c2c(nc3ccc(OC(=O)N4CCC(N5CCCCC5)CC4)cc13)-c1cc3c(c(=O)n1C2)COC(=O)[C@]3(O)CC [Irinotecan, irinotecan]	–	–	–	–	–	–	–	–	more sensitive	–	–
O=C1[O][Pt]2([NH][C@@H]3CCCC[C@H]3[NH]2)[O]C1=O [Oxaliplatin, oxaliplatin]	–	–	–	–	–	–	–	more sensitive	resistant	–	–

Reference: patent publication US20260226552A1, “MUC5AC IN PANCREATIC DUCTAL ADENOCARCINOMA” (Ohio State Innovation Foundation, priority 2023, published 2026)
